Source: patent US20170290774A1, “NEUROKININ-1 RECEPTOR ANTAGONIST COMPOSITION FOR TREATMENT OF DISEASES AND CONDITIONS OF THE RESPIRATORY TRACT” (PLUS VITECH, S.L., priority 2014, published 2017)

What was measured:
MMP-14 = test: Immunohistochemistry of MMP-14 in respiratory tract tissue of sodium hypochlorite aerosol-treated rabbits; type: in vivo, New Zealand albino rabbits; settings: pharyngeal tissue; Group 8, inhalation 0.4 mg/kg per day
From the text: (§1) It is known that the factors TGF-α, TGF-β 1, TGF-β 2, TGF-β 3, SPARC, MMP-3; MMP-7, MMP-9, MMP-11, MMP-13 and MMP-14, TGF-β, NF-kB, EGF, MMP-9, VEGF and TNF-α which are produced by lung cells (pneumocytes, fibroblasts and vascular endothelial cells) and inflammatory cells (macrophages, lymphocytes and polymorphonuclear leukocytes) are involved in the pathophysiology and development of said respiratory tract diseases. […] Herein, 27 New Zealand albino rabbits (New Zealand White Rabbit) with an initial average weight about 3 kg were used in this example. All subjects were administered an aerosol of a solution consisting of a mixture of water and sodium hypochlorite (35 g sodium hypochlorite per liter of water) at a rate of 5 mL of said solution by inhalation three times a day for 7 days (days 1 to 7 of experimentation). Subsequently, from days 3 to 7, a group of 3 rabbits (Group 1) was administered an oral dose of 10 mg/kg body weight per day, another group of 3 rabbits (Group 2) was administered an oral dose of 40 mg/kg body weight per day, a third group (Group 3) was administered an oral dose of 80 mg/kg body weight per day and a fourth group (Group 4) was administered an oral dose of 100 mg/kg body weight per day. […] This mixture was administered as an aerosol by inhalation, also from days 3 to 7, to a group of 3 rabbits (group 5) at a dose of 0.05 mg/kg body weight per day, to another group of three rabbits (Group 6) at a dose of 0.1 mg/kg body weight per day, to another group of three rabbits (Group 7) at a dose of 0.2 mg/kg body weight per day and to another group of three rabbits (Group 8) at a dose of 0.4 mg/kg body weight per day. A placebo consisting only of olive oil was administered from days 3 to 7 to a control group of 3 rabbits (placebo group). In parallel, 3 rabbits were kept under identical conditions but were not administered any treatment nor the aforementioned sodium hypochlorite solution (control group). […] On day 7 of the experiment all animals were euthanized and necropsied. […] Samples were taken at the peripheral level of the lung parenchyma, just below the pleural surface. Tissue samples were also taken from the nasal cavity, pharynx, larynx and bronchi. Immunohistochemistry studies were performed for all samples to evaluate the levels of the markers TGF-α, TGF-β 1, TGF-β 2, TGF-β 3 SPARC, MMP-3; MMP-7, MMP-9, MMP-11, MMP-14, TGF-β, TNF-α and VEGF. In said immunohistochemistry studies, a sample of each sample was dehydrated by treatment with increasing concentrations of ethanol and finally xylene. Subsequently said dried samples were embedded in paraffin, thus creating a block. Said paraffin blocks were cut on a microtome to a thickness of 5 μm, and the resulting sections (slices) were placed on slides suitable for conducting immunohistochemistry techniques. Subsequently, the sections were deparaffinised by immersion in xylene and then rehydrated through immersion in a series of solutions containing decreasing concentrations of ethanol and, finally, water. […] The samples were then allowed to cool to room temperature over 10 minutes. Endogenous peroxidase activity was blocked by treatment with 3% hydrogen peroxide over 30 min at room temperature. […] In order to verify the expression of NK1 receptors, the cell samples were incubated in the presence of anti-NK1 antibodies ([…], Sigma-Aldrich) diluted 1:1000 at 4° C. overnight. After this time they were washed in 0.05M Tris buffer at room temperature. Subsequently, Envision System-HRP (Dako) reagents were added for 30 min at room temperature. Once this time had expired, the samples were again washed with 0.05 M Tris buffer, and immunoreactivity was visualized by light microscopy with a chromogenic solution with 3,3'-diaminobenzidine (DAB+; Dako, USA). In order to differentiate the cell nuclei, these were lightly stained with haematoxylin. Samples that were not incubated with the primary antibody, but wherein this was replaced by a non-immune serum were used as negative controls. […]

MMP-7 = test: Immunohistochemistry of MMP-7 in respiratory tract tissue of sodium hypochlorite aerosol-treated rabbits; type: in vivo, New Zealand albino rabbits
From the text: as §1

C[C@@H](OC1OCCN(Cc2nc(=O)[nH][nH]2)C1c1ccc(F)cc1)c1cc(C(F)(F)F)cc(C(F)(F)F)c1 (stereo in doubt) [Aprepitant, 5-([(2R,3S)-2-((R)-1-[3,5-bis(trifluoromethyl)phenyl]ethoxy)-3-(4-fluorophenyl)morpholino]methyl)-1H-1,2,4-triazol-3(2H)-one]
Percent increase in MMP-14 with respect to the control group (MMP-14): 135.00%
Percent increase in MMP-7 with respect to the control group (MMP-7; bronchial tissue, Group 1, oral 10 mg/kg per day): 504.23%
Percent increase in MMP-7 with respect to the control group (MMP-7; bronchial tissue, Group 2, oral 40 mg/kg per day): 406.34%
Percent increase in MMP-7 with respect to the control group (MMP-7; bronchial tissue, Group 3, oral 80 mg/kg per day): 398.45%
Percent increase in MMP-7 with respect to the control group (MMP-7; bronchial tissue, Group 4, oral 100 mg/kg per day): 289.56%
% Med G5/C: percent increase in marker MMP-7 with respect to the control group (MMP-7; bronchial tissue, Group 5): 549.34%
% Med G6/C: percent increase in marker MMP-7 with respect to the control group (MMP-7; bronchial tissue, Group 6): 467.45%
% Med G7/C: percent increase in marker MMP-7 with respect to the control group (MMP-7; bronchial tissue, Group 7): 356.47%
% Med G8/C: percent increase in marker MMP-7 with respect to the control group (MMP-7; bronchial tissue, Group 8): 241.56%
Percent increase in MMP-7 with respect to the control group (MMP-7; laryngeal tissue, Group 1, oral 10 mg/kg per day): 1,012.67%
Percent increase in MMP-7 with respect to the control group (MMP-7; laryngeal tissue, Group 2, oral 40 mg/kg per day): 899.78%
Percent increase in MMP-7 with respect to the control group (MMP-7; laryngeal tissue, Group 3, oral 80 mg/kg per day): 788.56%
Percent increase in MMP-7 with respect to the control group (MMP-7; laryngeal tissue, Group 4, oral 100 mg/kg per day): 576.89%
Percent increase in MMP-7 with respect to the control group (MMP-7; laryngeal tissue, Group 5, inhalation 0.05 mg/kg per day): 1,205.45%
Percent increase in MMP-7 with respect to the control group (MMP-7; laryngeal tissue, Group 6, inhalation 0.1 mg/kg per day): 809.54%
Percent increase in MMP-7 with respect to the control group (MMP-7; laryngeal tissue, Group 7, inhalation 0.2 mg/kg per day): 372.23%
Percent increase in MMP-7 with respect to the control group (MMP-7; laryngeal tissue, Group 8, inhalation 0.4 mg/kg per day): 112.25%
Percent increase in MMP-7 with respect to the control group (MMP-7; lung tissue, Group 1, oral 10 mg/kg per day): 345.90%
Percent increase in MMP-7 with respect to the control group (MMP-7; lung tissue, Group 2, oral 40 mg/kg per day): 325.50%
Percent increase in MMP-7 with respect to the control group (MMP-7; lung tissue, Group 3, oral 80 mg/kg per day): 220.38%
Percent increase in MMP-7 with respect to the control group (MMP-7; lung tissue, Group 4, oral 100 mg/kg per day): 184.56%
Percent increase in MMP-7 with respect to the control group (MMP-7; lung tissue, Group 5, inhalation 0.05 mg/kg per day): 321.48%
Percent increase in MMP-7 with respect to the control group (MMP-7; lung tissue, Group 6, inhalation 0.1 mg/kg per day): 232.63%
Percent increase in MMP-7 with respect to the control group (MMP-7; lung tissue, Group 7, inhalation 0.2 mg/kg per day): 142.07%
Percent increase in MMP-7 with respect to the control group (MMP-7; lung tissue, Group 8, inhalation 0.4 mg/kg per day): 109.05%
Percent increase in MMP-7 with respect to the control group (MMP-7; nasal cavity tissue, Group 1, oral 10 mg/kg per day): 2,267.10%
Percent increase in MMP-7 with respect to the control group (MMP-7; nasal cavity tissue, Group 2, oral 40 mg/kg per day): 1,308.16%
Percent increase in MMP-7 with respect to the control group (MMP-7; nasal cavity tissue, Group 3, oral 80 mg/kg per day): 1,119.62%
Percent increase in MMP-7 with respect to the control group (MMP-7; nasal cavity tissue, Group 4, oral 100 mg/kg per day): 942.01%
Percent increase in MMP-7 with respect to the control group (MMP-7; nasal cavity tissue, Group 5, inhalation 0.05 mg/kg per day): 1,835.98%
Percent increase in MMP-7 with respect to the control group (MMP-7; nasal cavity tissue, Group 6, inhalation 0.1 mg/kg per day): 1,147.87%
Percent increase in MMP-7 with respect to the control group (MMP-7; nasal cavity tissue, Group 7, inhalation 0.2 mg/kg per day): 444.94%
Percent increase in MMP-7 with respect to the control group (MMP-7; nasal cavity tissue, Group 8, inhalation 0.4 mg/kg per day): 136.90%
Percent increase in MMP-7 with respect to the control group (MMP-7; pharyngeal tissue, Group 1, oral 10 mg/kg per day): 2,004.34%
Percent increase in MMP-7 with respect to the control group (MMP-7; pharyngeal tissue, Group 2, oral 40 mg/kg per day): 1,591.34%
Percent increase in MMP-7 with respect to the control group (MMP-7; pharyngeal tissue, Group 3, oral 80 mg/kg per day): 1,456.45%
Percent increase in MMP-7 with respect to the control group (MMP-7; pharyngeal tissue, Group 4, oral 100 mg/kg per day): 967.12%
Percent increase in MMP-7 with respect to the control group (MMP-7; pharyngeal tissue, Group 5, inhalation 0.05 mg/kg per day): 1,820.78%
Percent increase in MMP-7 with respect to the control group (MMP-7; pharyngeal tissue, Group 6, inhalation 0.1 mg/kg per day): 1,109.45%
Percent increase in MMP-7 with respect to the control group (MMP-7; pharyngeal tissue, Group 7, inhalation 0.2 mg/kg per day): 450.45%
Percent increase in MMP-7 with respect to the control group (MMP-7; pharyngeal tissue, Group 8, inhalation 0.4 mg/kg per day): 121.80%
